Experimental data taken from PubChem BioAssay AID192 (DTP/NCI, 2004).
“And” between values parts separate entries of the source, which are not always exact repeats. Equal entries are not always repeated. Inconclusive results and toxic doses are left out. How the source made its calls: active means survival T/C of 150% or more; inactive means T/C below 125% in these data.

Test system: BDF1 mice, B16 melanoma ip, median survival T/C
Assay: NCI In Vivo Anticancer Drug Screen. Data for tumor model B16 Melanoma (intraperitoneal) in B6D2F1 (BDF1) mice
Settings: endpoint: median survival time, higher = longer survival
Summary of the method: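 Mice with transplantable tumors; drug vs vehicle groups; endpoint survival or tumor size; value = T/C.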

[1] = dose: 100.0 mg/kg/injection, schedule: Q01DX009 (ip), vehicle: Klucel (hydroxypropylcellulose) (HPC)
[2] = dose: 200.0 mg/kg/injection, schedule: Q01DX009 (ip), vehicle: Klucel (hydroxypropylcellulose) (HPC)
[3] = dose: 400.0 mg/kg/injection, schedule: Q01DX009 (ip), vehicle: Klucel (hydroxypropylcellulose) (HPC)
[4] = dose: 100.0 mg/kg/injection, schedule: Q01DX009 (ip), vehicle: saline with Tween-80
[5] = dose: 200.0 mg/kg/injection, schedule: Q01DX009 (ip), vehicle: saline with Tween-80
[6] = dose: 400.0 mg/kg/injection, schedule: Q01DX009 (ip), vehicle: saline with Tween-80
[7] = dose: 50.0 mg/kg/injection, schedule: Q01DX009 (ip), vehicle: saline with Tween-80
[8] = dose: 12.5 mg/kg/injection, schedule: Q01DX009 (ip), vehicle: saline with Tween-80
[9] = dose: 1.56 mg/kg/injection, schedule: Q01DX009 (ip), vehicle: saline
[10] = dose: 3.12 mg/kg/injection, schedule: Q01DX009 (ip), vehicle: saline
[11] = dose: 25.0 mg/kg/injection, schedule: Q01DX009 (ip), vehicle: saline
[12] = dose: 50.0 mg/kg/injection, schedule: Q01DX009 (ip), vehicle: saline
[13] = dose: 25.0 mg/kg/injection, schedule: Q01DX009 (ip), vehicle: saline with Tween-80
[14] = dose: 12.5 mg/kg/injection, schedule: Q01DX009 (ip), vehicle: Klucel (hydroxypropylcellulose) (HPC)
[15] = dose: 25.0 mg/kg/injection, schedule: Q01DX009 (ip), vehicle: Klucel (hydroxypropylcellulose) (HPC)
[16] = dose: 50.0 mg/kg/injection, schedule: Q01DX009 (ip), vehicle: Klucel (hydroxypropylcellulose) (HPC)

Measured: T/C

O=C1c2ccccc2S(=O)(=O)c2ccc(Br)cc21
inactive: [1] 93 % of control | [2] 90 % of control | [3] 93 % of control

CC(=O)OC(OC(C)=O)c1ccc([N+](=O)[O-])cc1
inactive: [4] 93 % of control | [5] 95 % of control | [6] 86 % of control

CC1=NN(c2cccc(Cl)c2)C(=O)C1
inactive: [7] 108 % of control | [4] 109 % of control | [5] 101 % of control

Oc1ccc(C2C=CCC2)cc1C1C=CCC1 (stereo not given)
inactive: [1] 99 % of control and 100 % of control | [2] 89 % of control and 96 % of control | [3] 100 % of control and 107 % of control

COC1=CC(=O)C(C2CC(=O)c3c(O)cc(O)cc3O2)=CC1=O (stereo not given)
inactive: dose: 3.13 mg/kg/injection, schedule: Q01DX009 (ip), vehicle: saline with Tween-80 102 % of control | dose: 6.25 mg/kg/injection, schedule: Q01DX009 (ip), vehicle: saline with Tween-80 91 % of control | [8] 89 % of control

CN(C)CCN(Cc1ccccc1)c1ccccc1
inactive: dose: 25.0 mg/kg/injection, schedule: Q04DX003 (ip), vehicle: Klucel (hydroxypropylcellulose) (HPC) 95 % of control | dose: 50.0 mg/kg/injection, schedule: Q04DX003 (ip), vehicle: Klucel (hydroxypropylcellulose) (HPC) 89 % of control

COC1CCCCC1SCSC1CCCCC1OC (stereo not given)
inactive: [4] 105 % of control | [5] 102 % of control | [6] 105 % of control

CCN(CC)CCOC(=O)c1ccccc1N(c1ccccc1)c1ccccc1
inactive: dose: 62.5 mg/kg/injection, schedule: Q01DX009 (ip), vehicle: saline sonified 102 % of control | dose: 125.0 mg/kg/injection, schedule: Q01DX009 (ip), vehicle: saline sonified 89 % of control | dose: 250.0 mg/kg/injection, schedule: Q01DX009 (ip), vehicle: saline sonified 89 % of control

Cc1ccc(CNc2ccc(Br)cc2)cc1
inactive: [1] 94 % of control | [2] 91 % of control

CNCC(O)c1cccc(O)c1 (stereo not given)
inactive: [9] 111 % of control | [10] 117 % of control | dose: 12.5 mg/kg/injection, schedule: Q01DX009 (ip), vehicle: saline 108 % of control | [11] 105 % of control | [12] 95 % of control

Cc1ccc(S(=O)(=O)Cl)cc1Cl
inactive: [13] 108 % of control | [7] 97 % of control | [4] 86 % of control

[Cl][Ni+2][Cl].[NH-]CCN1CC1
inactive: dose: 0.78 mg/kg/injection, schedule: Q01DX009 (ip), vehicle: saline 97 % of control | [9] 97 % of control | [10] 90 % of control

CCN(C(=O)Nc1cccc2ccccc12)c1ccccc1
inactive: [1] 102 % of control | [2] 88 % of control | [3] 91 % of control

O=C1C(N2CCCCC2)=C(N2CC2)C(=O)C(N2CCCCC2)=C1N1CC1
inactive: dose: 2.5 mg/kg/injection, schedule: Q01DX009 (ip), vehicle: saline 94 % of control and 97 % of control | dose: 5.0 mg/kg/injection, schedule: Q01DX009 (ip), vehicle: saline 121 % of control

O=C(CC1(Cl)C(F)(F)C(F)(F)C1(F)F)c1ccccc1
inactive: dose: 0.75 mg/kg/injection, schedule: Q01DX009 (ip), vehicle: saline with Tween-80 100 % of control | dose: 1.5 mg/kg/injection, schedule: Q01DX009 (ip), vehicle: saline with Tween-80 100 % of control | dose: 3.0 mg/kg/injection, schedule: Q01DX009 (ip), vehicle: saline with Tween-80 95 % of control | dose: 4.0 mg/kg/injection, schedule: Q04DX003 (ip), vehicle: saline 100 % of control | [8] 90 % of control | dose: 25.0 mg/kg/injection, schedule: Q04DX003 (ip), vehicle: saline with Tween-80 102 % of control

Cc1ccc2nc3c4ccccc4c4ccccc4c3nc2c1
inactive: dose: 100.0 mg/kg/injection, schedule: Q04DX003 (ip), vehicle: Klucel (hydroxypropylcellulose) (HPC) 102 % of control | dose: 200.0 mg/kg/injection, schedule: Q04DX003 (ip), vehicle: Klucel (hydroxypropylcellulose) (HPC) 97 % of control | dose: 400.0 mg/kg/injection, schedule: Q04DX003 (ip), vehicle: Klucel (hydroxypropylcellulose) (HPC) 91 % of control

O=C(C(=O)c1ccc(Br)cc1)c1ccc(Br)cc1
inactive: [14] 108 % of control | [15] 107 % of control | [16] 91 % of control

C(COCC1CO1)OCC1CO1 (stereo not given)
inactive: [11] 91 % of control | [12] 113 % of control | dose: 100.0 mg/kg/injection, schedule: Q01DX009 (ip), vehicle: saline 119 % of control

N#CCN(CC#N)CC#N
inactive: [9] 97 % of control | dose: 3.13 mg/kg/injection, schedule: Q01DX009 (ip), vehicle: saline 102 % of control | dose: 3.13 mg/kg/injection, schedule: Q04DX003 (ip), vehicle: saline with Tween-80 113 % of control | dose: 6.25 mg/kg/injection, schedule: Q01DX009 (ip), vehicle: saline 100 % of control | dose: 6.25 mg/kg/injection, schedule: Q04DX003 (ip), vehicle: saline with Tween-80 94 % of control

CC(C)=CCc1c2c(c(O)c3c(=O)c(-c4ccc(O)c(O)c4)coc13)C=CC(C)(C)O2
inactive: [13] 100 % of control | [7] 94 % of control | [4] 94 % of control | [5] 100 % of control

CC(C)NCC(O)COc1cccc2ccccc12 (stereo not given)
inactive: dose: 4.0 mg/kg/injection, schedule: Q01DX009 (ip), vehicle: Klucel (hydroxypropylcellulose) (HPC) 99 % of control and 112 % of control | dose: 8.0 mg/kg/injection, schedule: Q01DX009 (ip), vehicle: Klucel (hydroxypropylcellulose) (HPC) 101 % of control | dose: 16.0 mg/kg/injection, schedule: Q01DX009 (ip), vehicle: Klucel (hydroxypropylcellulose) (HPC) 98 % of control and 108 % of control | dose: 32.0 mg/kg/injection, schedule: Q01DX009 (ip), vehicle: Klucel (hydroxypropylcellulose) (HPC) 91 % of control and 95 % of control | dose: 64.0 mg/kg/injection, schedule: Q01DX009 (ip), vehicle: Klucel (hydroxypropylcellulose) (HPC) 97 % of control and 101 % of control

CCCCCCCCCCCCCCCCCC(=O)[O][Pb]([CH3])([CH3])[CH3]
inactive: dose: 1.25 mg/kg/injection, schedule: Q01DX009 (ip), vehicle: Klucel (hydroxypropylcellulose) (HPC) 99 % of control | dose: 2.5 mg/kg/injection, schedule: Q01DX009 (ip), vehicle: Klucel (hydroxypropylcellulose) (HPC) 99 % of control | dose: 5.0 mg/kg/injection, schedule: Q01DX009 (ip), vehicle: Klucel (hydroxypropylcellulose) (HPC) 91 % of control

CC1=C/C(O)CC(=O)Cc2nc(co2)C(=O)N2CCC=C2C(=O)OC(C(C)C)C(C)/C=C\C(=O)NC/C=C\1 (stereo not given)
inactive: [15] 91 % of control | [16] 102 % of control | [1] 118 % of control | [2] 123 % of control | dose: 0.5 micrograms/kg/injection, schedule: Q01DX009 (ip), vehicle: saline 103 % of control | dose: 1.0 micrograms/kg/injection, schedule: Q01DX009 (ip), vehicle: saline 102 % of control | dose: 2.0 micrograms/kg/injection, schedule: Q01DX009 (ip), vehicle: saline 107 % of control

O=[N+]([O-])c1ccc(/C=N\Nc2ccc([N+](=O)[O-])cn2)cc1
inactive: dose: 0.78 mg/kg/injection, schedule: Q01DX009 (ip), vehicle: Klucel (hydroxypropylcellulose) (HPC) 106 % of control | dose: 1.56 mg/kg/injection, schedule: Q01DX009 (ip), vehicle: Klucel (hydroxypropylcellulose) (HPC) 97 % of control | dose: 3.12 mg/kg/injection, schedule: Q01DX009 (ip), vehicle: Klucel (hydroxypropylcellulose) (HPC) 86 % of control | dose: 6.25 mg/kg/injection, schedule: Q01DX009 (ip), vehicle: Klucel (hydroxypropylcellulose) (HPC) 97 % of control | [14] 86 % of control
